Assays:
Assay type in all cases: functional, cell-based
[1] = test system: HT-29; experiment: Cytotoxicity against human HT-29 cells
[2] = test system: A549; experiment: Cytotoxicity against human A549 cells
[3] = test system: P388; experiment: Cytotoxicity against mouse P388 cells

Measured: IC50

CO[C@@]1(C)CCC(C(C)C)=C[C@@H]2[C@H]1CC[C@]2(C)O
> 1 µg/mL: all assays above

CC(=O)CCCC(C)(C)C(=O)CC/C(C)=C/CC[C@@]1(C)CC[C@H]([C@H](C)C(=O)O)OO1 [AIKUPIKOXIDE A]
> 1 µg/mL: all assays above

C=C1CCCC(C)(C)C1(O)CC[C@@]1(C)CC[C@@H]([C@H](C)C(=O)OC)OO1 (stereo not given in full) [AIKUPIKOXIDE B]
> 1 µg/mL: all assays above

C=C(CCCC(C)(C)O)C(=O)CC[C@@]1(C)CC[C@@H]([C@H](C)C(=O)OC)OO1 [AIKUPIKOXIDE D]
> 1 µg/mL: all assays above

COC(=O)[C@@H](C)[C@@H]1CC[C@](C)(CCC(=O)C(C)(C)CCCC(C)=O)OO1 [DIACARPEROXIDE B]
> 1 µg/mL: all assays above

From ChEMBL document CHEMBL1156363, “Cytotoxic cyclic norterpene peroxides from a Red Sea sponge Diacarnus erythraenus” (J Nat Prod, 2001)
